Results published in US20240174624A1, “CHIRAL N-(1,3,4-OXADIAZOLE-2-YL)PHENYL CARBOXYLIC ACID AMIDES AND THEIR USE AS HERBICIDES” (Bayer Aktiengesellschaft, priority 2021, published 2024).

Columns and labels:
ZEAMX [1] = experiment: Pre-emergence damage to crop plants; format: in vivo, Zea mays; conditions: comparative experiment
Excerpt: (§1) Seeds of monocotyledonous and dicotyledonous weed plants and crop plants are laid out in sandy loam soil in wood-fibre pots and covered with soil. The compounds of the invention, formulated in the form of wettable powders (WP) or as emulsion concentrates (EC), are then applied to the surface of the covering soil in the form of an aqueous suspension or emulsion at a water application rate equivalent to 600 to 800 l/ha, with addition of 0.2% wetting agent. After the treatment, the pots are placed in a greenhouse and kept under good growth conditions for the trial plants. The damage to the test plants is scored visually after a test period of 3 weeks by comparison with untreated controls (herbicidal activity in percent (%): 100% activity=the plants have died, 0% activity=like control plants). […] The tables below illustrate, in an illustrative manner, the post-emergence herbicidal action of the compounds of the invention, the herbicidal activity being stated in percent. In the experiments that follow, the herbicidal action of the compounds of the invention and that of the corresponding known racemic compounds closest from WO2012126932 and WO2018202535 were compared under the above-specified conditions by the pre-emergence and post-emergence method. The example numbers given in the tables relate to the compounds disclosed in the respective documents.

TRZAS [2] = experiment: Pre-emergence damage to crop plants; format: in vivo, Triticum aestiva; conditions: comparative experiment
Excerpt: as §1

GLXMA = experiment: Pre-emergence damage to crop plants; format: in vivo, Glycine max; conditions: 80 g a.i./ha, comparative experiment
Excerpt: as §1

BRSNW = experiment: Pre-emergence damage to crop plants; format: in vivo, Brassica napus; conditions: 20 g a.i./ha, comparative experiment
Excerpt: as §1

ORYZA [3] = experiment: Post-emergence damage to crop plants; format: in vivo, Oryza sativa; conditions: comparative experiment
Method: (§2) Seeds of monocotyledonous and dicotyledonous weed and crop plants are laid out in sandy loam soil in wood-fibre pots, covered with soil and cultivated in a greenhouse under good growth conditions. 2 to 3 weeks after sowing, the test plants are treated at the one-leaf stage. The compounds of the invention, formulated in the form of wettable powders (WP) or as emulsion concentrates (EC), are then sprayed onto the green parts of the plants in the form of an aqueous suspension or emulsion at a water application rate equating to 600 to 800 l/ha, with addition of 0.2% wetting agent. After the test plants have been left to stand in the greenhouse under optimal growth conditions for about 3 weeks, the action of the preparations is assessed visually in comparison to untreated controls (herbicidal action in percent (%): 100% activity=the plants have died, 0% activity=like control plants). […] The tables below illustrate, in an illustrative manner, the post-emergence herbicidal action of the compounds of the invention, the herbicidal activity being stated in percent. In the experiments that follow, the herbicidal action of the compounds of the invention and that of the corresponding known racemic compounds closest from WO2012126932 and WO2018202535 were compared under the above-specified conditions by the pre-emergence and post-emergence method. The example numbers given in the tables relate to the compounds disclosed in the respective documents.

TRZAS [4] = experiment: Post-emergence damage to crop plants; format: in vivo, Triticum aestiva; conditions: comparative experiment
Method: as §2

ORYZA [5] = experiment: Pre-emergence damage to crop plants; format: in vivo, Oryza sativa; conditions: 80 g a.i./ha, comparative experiment
Excerpt: as §1

ZEAMX [6] = experiment: Post-emergence damage to crop plants; format: in vivo, Zea mays; conditions: 80 g a.i./ha, comparative experiment
Method: as §2

Row | Structure (SMILES) | Damage to ZEAMX (ZEAMX [1]; 20 g a.i./ha) | Damage to ZEAMX (ZEAMX [1]; 80 g a.i./ha) | Damage to TRZAS (TRZAS [2]; 20 g a.i./ha) | Damage to TRZAS (TRZAS [2]; 80 g a.i./ha) | Damage to GLXMA (GLXMA) | Damage to BRSNW (BRSNW) | Damage to ORYZA (ORYZA [3]; 5 g a.i./ha) | Damage to TRZAS (TRZAS [4]; 5 g a.i./ha) | Damage to TRZAS (TRZAS [4]; 20 g a.i./ha) | Damage to ZEAMX (ZEAMX [1]; 320 g a.i./ha) | Damage to ORYZA (ORYZA [5]) | Damage to ORYZA (ORYZA [3]; 80 g a.i./ha) | Damage to ZEAMX (ZEAMX [6]) | Damage to TRZAS (TRZAS [4]; 80 g a.i./ha)
1 | Cc1c(C(=O)Nc2nnco2)ccc(C(F)(F)F)c1[S+](C)[O-] (racemic) [1-144 from WO2012126932, 2-methyl-N-(1,3,4-oxadiazol-2-yl)-3-[(rac)-methylsulfinyl]-4-(trifluoromethyl)benzamide, reference compound] | 20% | 30% | 50% | 90% | 80% | 100% | 60% | 40% | 50% |  |  |  |  | 
2 | C[S+]([O-])c1c(C(F)(F)F)ccc(C(=O)Nc2nnco2)c1Cl (racemic) [1-360, from WO2012126932, 2-chloro-N-(1,3,4-oxadiazol-2-yl)-3-[(rac)-methylsulfinyl]-4-(trifluoromethyl)benzamide, reference compound] |  |  |  | 80% |  |  |  |  |  | 20% | 100% | 100% | 20% | 100%
